Measurements from the NIST ThermoML archive (doi:10.1016/j.fluid.2014.02.027).

Details: Liquid; for vapor or sublimation pressure: Closed cell (Static) method

FC(F)(F)C(F)(F)C(F)(C(F)(C(F)(F)F)C(F)(F)F)C(F)(C(F)(F)F)C(F)(F)F
Details | vapor or sublimation pressure [kPa]
364.58 K | 35
368.2 K | 40
373.47 K | 48
378.29 K | 56
388.47 K | 77
398.2 K | 103
408.48 K | 137
418.26 K | 176
428.22 K | 226
438.31 K | 286
448.23 K | 357
458.16 K | 438
468.16 K | 536
478.24 K | 649
488.03 K | 778
498.02 K | 928
503.12 K | 1014
507.94 K | 1104

FC(F)(F)C(F)(F)C(F)(C(F)(F)C(F)(F)F)C(F)(C(F)(F)F)C(F)(F)F [perfluoro-2-methyl-3-ethylpentane]
Details | Critical pressure [kPa] | Critical temperature [K] | vapor or sublimation pressure [kPa]
358.2 K | – | – | 59
368.19 K | – | – | 82
378.2 K | – | – | 111
388.17 K | – | – | 146
398.19 K | – | – | 191
408.13 K | – | – | 245
418.15 K | – | – | 312
428.16 K | – | – | 391
438.11 K | – | – | 484
448.07 K | – | – | 593
458.05 K | – | – | 720
468 K | – | – | 866
473 K | – | – | 947
477.98 K | – | – | 1034
482.95 K | – | – | 1127
487.89 K | – | – | 1225
492.92 K | – | – | 1332
497.89 K | – | – | 1447
502.9 K | – | – | 1571
Direct measurement | 1685 | – | –
Visual observation in an unstirred cell | – | 507.12 | –
